Measured values published in EP4667458A1 (Kanaph Therapeutics Inc., priority 2023, dated 2024).

target: T1, KRAS^G12C::SOS1 (Homo sapiens, UniProt Q07889); test: KRAS G12C::SOS1 protein-protein interaction (PPI) inhibition assay (HTRF binding kit)
T1 sequence (Q07889 1-1333): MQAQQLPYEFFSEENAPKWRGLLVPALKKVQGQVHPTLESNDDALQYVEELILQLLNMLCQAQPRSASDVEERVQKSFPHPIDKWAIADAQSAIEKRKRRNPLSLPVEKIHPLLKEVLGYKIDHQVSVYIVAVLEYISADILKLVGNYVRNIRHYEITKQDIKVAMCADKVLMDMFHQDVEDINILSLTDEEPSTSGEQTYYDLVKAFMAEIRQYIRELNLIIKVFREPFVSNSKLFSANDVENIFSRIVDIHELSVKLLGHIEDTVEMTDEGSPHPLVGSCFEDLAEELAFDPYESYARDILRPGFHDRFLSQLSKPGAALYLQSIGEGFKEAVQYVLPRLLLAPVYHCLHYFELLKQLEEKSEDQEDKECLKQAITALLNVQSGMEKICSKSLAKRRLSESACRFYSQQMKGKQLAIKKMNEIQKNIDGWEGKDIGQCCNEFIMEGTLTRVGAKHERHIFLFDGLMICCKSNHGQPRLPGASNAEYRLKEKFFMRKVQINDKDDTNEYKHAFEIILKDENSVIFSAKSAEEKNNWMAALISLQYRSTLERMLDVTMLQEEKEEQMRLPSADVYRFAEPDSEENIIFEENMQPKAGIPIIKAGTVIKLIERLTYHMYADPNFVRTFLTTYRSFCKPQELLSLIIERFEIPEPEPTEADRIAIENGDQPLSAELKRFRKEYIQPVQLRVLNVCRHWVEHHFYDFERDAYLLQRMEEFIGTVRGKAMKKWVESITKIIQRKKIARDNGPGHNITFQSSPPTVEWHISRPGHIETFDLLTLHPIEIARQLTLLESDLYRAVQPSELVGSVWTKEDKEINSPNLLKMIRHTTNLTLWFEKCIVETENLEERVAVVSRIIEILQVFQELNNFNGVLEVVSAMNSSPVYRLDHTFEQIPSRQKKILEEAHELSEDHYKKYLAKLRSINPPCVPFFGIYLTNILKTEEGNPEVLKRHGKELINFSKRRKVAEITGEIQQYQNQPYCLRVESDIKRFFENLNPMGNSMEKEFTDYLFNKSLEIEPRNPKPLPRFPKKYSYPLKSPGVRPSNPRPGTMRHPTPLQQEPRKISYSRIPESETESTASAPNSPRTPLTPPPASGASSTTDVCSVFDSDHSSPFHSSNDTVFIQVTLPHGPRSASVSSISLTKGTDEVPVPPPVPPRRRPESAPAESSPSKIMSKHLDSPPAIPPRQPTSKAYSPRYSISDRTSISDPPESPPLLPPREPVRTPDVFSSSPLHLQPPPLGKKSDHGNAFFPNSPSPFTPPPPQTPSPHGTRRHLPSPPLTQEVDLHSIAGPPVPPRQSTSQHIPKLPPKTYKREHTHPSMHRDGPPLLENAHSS

IC50, < 1000 nM:
COc1cccc(-n2nc(C(=O)N[C@H](C)c3cc(N)cc(C(F)(F)F)c3)ccc2=O)c1F [Example 185, N-[(1R)-1-[3-amino-5-(trifluoromethyl)phenyl]ethyl]-1-(2-fluoro-3-methoxy-phenyl)-6-oxo-pyridazine-3-carboxamide]
COc1cccc(-n2cc(C(=O)N[C@H](C)c3cccc(C(F)(F)CO)c3F)ccc2=O)c1F [Example 186, N-[(1R)-1-[3-(1,1-difluoro-2-hydroxy-ethyl)-2-fluoro-phenyl]ethyl]-1-(2-fluoro-3-methoxyphenyl)-6-oxo-pyridine-3-carboxamide]
COc1cccc(-n2cc(C(=O)N[C@H](C)c3cc(N)cc(C(F)(F)F)c3)ccc2=O)c1F [Example 187, N-[(1R)-1-[3-amino-5-(trifluoromethyl)phenyl]ethyl]-1-(2-fluoro-3-methoxy-phenyl)-6-oxo-pyridine-3-carboxamide]
C[C@@H](NC(=O)c1ccc(=O)n(-c2ccccc2)n1)c1cccc(I)c1 [Example 188, (R)-N-(1-(3-iodophenyl)ethyl)-6-oxo-1-phenyl-1,6-dihydropyridazine-3-carboxamide]
CCOc1ccc(-n2nc(C(=O)N[C@H](C)c3cc(N)cc(C(F)(F)F)c3)ccc2=O)cc1 [Example 189, (R)-N-(1-(3-amino-5-(trifluoromethyl)phenyl)ethyl)-1-(4-ethoxyphenyl)-6-oxo-1,6-dihydropyridazine-3-carboxamide]
C[C@@H](NC(=O)c1ccc(=O)n(-c2ccccc2)n1)c1cccc(S(F)(F)(F)(F)F)c1 [Example 190, 6-oxo-N-[(1R)-1-[3-(pentafluoro-λ6-sulfanyl)phenyl]ethyl]-1-phenyl-pyridazine-3-carboxamide]
C[C@@H](NC(=O)c1ccc(=O)n(-c2ccccc2F)n1)c1cccc(C(F)(F)C(C)(C)O)c1F [Example 192, N-[(1R)-1-[3-(1,1-difluoro-2-hydroxy-2-methyl-propyl)-2-fluoro-phenyl]ethyl]-1-(2-fluorophenyl)-6-oxo-pyridazine-3-carboxamide]
COc1cc(-n2nc(C(=O)N[C@H](C)c3cccc(C(F)(F)CO)c3F)ccc2=O)ccn1 [Example 193, N-[(1R)-1-[3-(1,1-difluoro-2-hydroxy-ethyl)-2-fluoro-phenyl]ethyl]-1-(2-methoxy-4-pyridyl)-6-oxo-pyridazine-3-carboxamide]
C[C@@H](NC(=O)c1ccc(=O)n(-c2cccc(C(=O)N3CCCC3)c2)n1)c1cccc(C(F)(F)CO)c1F [Example 194, N-[(1R)-1-[3-(1,1-difluoro-2-hydroxy-ethyl)-2-fluoro-phenyl]ethyl]-6-oxo-1-[3-(pyrrolidine-1-carbonyl)phenyl]pyridazine-3-carboxamide]
C[C@@H](NC(=O)c1ccc(=O)n(-c2ccc(OC(F)F)cc2)n1)c1cccc(C(F)(F)CO)c1F [Example 195, N-[(1R)-1-[3-(1,1-difluoro-2-hydroxy-ethyl)-2-fluoro-phenyl]ethyl]-1-[4-(difluoromethoxy)phenyl]-6-oxo-pyridazine-3-carboxamide]
COc1cc(-n2nc(C(=O)N[C@H](C)c3cc(N)cc(C(F)(F)F)c3)ccc2=O)ccn1 [Example 196, N-[(1R)-1-[3-amino-5-(trifluoromethyl)phenyl]ethyl]-1-(2-methoxy-4-pyridyl)-6-oxo-pyridazine-3-carboxamide]
C[C@@H](NC(=O)c1ccc(=O)n(-c2cccc(C(=O)N3CCCC3)c2)n1)c1cc(N)cc(C(F)(F)F)c1 [Example 197, N-[(1R)-1-[3-amino-5-(trifluoromethyl)phenyl]ethyl]-6-oxo-1-[3-(pyrrolidine-1-carbonyl)phenyl]pyridazine-3-carboxamide]
C[C@@H](NC(=O)c1ccc(=O)n(-c2ccc(OC(F)F)cc2)n1)c1cc(N)cc(C(F)(F)F)c1 [Example 198, N-[(1R)-1-[3-amino-5-(trifluoromethyl)phenyl]ethyl]-1-[4-(difluoromethoxy)phenyl]-6-oxo-pyridazine-3-carboxamide]
COc1ccc(-n2cc(C(=O)N[C@H](C)c3cc(N)cc(C(F)(F)F)c3)ccc2=O)cc1 [Example 199, N-[(1R)-1-[3-amino-5-(trifluoromethyl)phenyl]ethyl]-1-(4-methoxyphenyl)-6-oxo-pyridine-3-carboxamide]
C[C@@H](NC(=O)c1ccc(=O)n(-c2cnn(C)c2)n1)c1cc(N)cc(C(F)(F)F)c1 [Example 200, N-[(1R)-1-[3-amino-5-(trifluoromethyl)phenyl]ethyl]-1-(1-methylpyrazol-4-yl)-6-oxo-pyridazine-3-carboxamide]
CC(C)c1cccc([C@@H](C)NC(=O)c2ccc(=O)n(-c3ccccc3)n2)c1 [Example 201, N-[(1R)-1-(3-isopropylphenyl)ethyl]-6-oxo-1-phenyl-pyridazine-3-carboxamide]
C[C@@H](NC(=O)c1ccc(=O)n(-c2ccc(OC(F)(F)F)cc2)n1)c1cccc(C(F)(F)CO)c1F [Example 202, N-[(1R)-1-[3-(1,1-difluoro-2-hydroxy-ethyl)-2-fluoro-phenyl]ethyl]-6-oxo-1-[4-(trifluoromethoxy)phenyl]pyridazine-3-carboxamide]
COc1ccc(-n2cc(C(=O)N[C@H](C)c3cccc(C(F)(F)CO)c3F)ccc2=O)cc1 [Example 203, N-[(1R)-1-[3-(1,1-difluoro-2-hydroxy-ethyl)-2-fluoro-phenyl]ethyl]-1-(4-methoxyphenyl)-6-oxo-pyridine-3-carboxamide]
COCc1cccc(-n2nc(C(=O)N[C@H](C)c3cccc(C(F)(F)CO)c3F)ccc2=O)c1 [Example 204, N-[(1R)-1-[3-(1,1-difluoro-2-hydroxy-ethyl)-2-fluoro-phenyl]ethyl]-1-[3-(methoxymethyl)phenyl]-6-oxo-pyridazine-3-carboxamide]
COCc1cccc(-n2nc(C(=O)N[C@H](C)c3cc(N)cc(C(F)(F)F)c3)ccc2=O)c1 [Example 205, N-[(1R)-1-[3-amino-5-(trifluoromethyl)phenyl]ethyl]-1-[3-(methoxymethyl)phenyl]-6-oxo-pyridazine-3-carboxamide]
COc1ccc(-n2nc(C(=O)N[C@H](C)c3cccc(C(F)(F)CO)c3F)ccc2=O)cc1C(=O)N(C)C [Example 206, N-[(1R)-1-[3-(1,1-difluoro-2-hydroxy-ethyl)-2-fluoro-phenyl]ethyl]-1-[3-(dimethylcarbamoyl)-4-methoxy-phenyl]-6-oxo-pyridazine-3-carboxamide]
COc1ccc(-n2nc(C(=O)N[C@H](C)c3cc(N)cc(C(F)(F)F)c3)ccc2=O)cc1C(=O)N(C)C [Example 207, N-[(1R)-1-[3-amino-5-(trifluoromethyl)phenyl]ethyl]-1-[3-(dimethylcarbamoyl)-4-methoxy-phenyl]-6-oxo-pyridazine-3-carboxamide]
C[C@@H](NC(=O)c1ccc(=O)n(-c2ccc3c(c2)COC3)n1)c1cc(N)cc(C(F)(F)F)c1 [Example 208, N-[(1R)-1-[3-amino-5-(trifluoromethyl)phenyl]ethyl]-1-(1,3-dihydroisobenzofuran-5-yl)-6-oxo-pyridazine-3-carboxamide]
C[C@@H](NC(=O)c1ccc(=O)n(-c2cnn(C)c2Cl)n1)c1cc(N)cc(C(F)(F)F)c1 [Example 209, N-[(1R)-1-[3-amino-5-(trifluoromethyl)phenyl]ethyl]-1-(5-chloro-1-methyl-pyrazol-4-yl)-6-oxo-pyridazine-3-carboxamide]
C[C@@H](NC(=O)c1nn(-c2ccccc2F)c(=O)cc1Nc1ccccc1)c1cc(N)cc(C(F)(F)F)c1 [Example 210, N-[(1R)-1-[3-amino-5-(trifluoromethyl)phenyl]ethyl]-4-anilino-1-(2-fluorophenyl)-6-oxo-pyridazine-3-carboxamide]
